Data: patent US11230525B2, “Organic sulfur compound, method for preparing same, and pharmaceutical composition for preventing or treating cancer or an inflammatory disease, containing same as active ingredient” (SOOKMYUNG WOMENS UNIVERSITY INDUSTRY-ACADEMIC COOPERATION …, priority 2016, dated 2022)

Columns and labels:
[1] = test system: breast cancer cell line (MDA-MB-231); assay: Cancer proliferation inhibitory activity (SRB, GI50), MDA-MB-231; assay type: cell-based; conditions: Homo sapiens, 48 hours
Excerpt: (§1) Particularly, the cancer proliferation inhibitory activity of the compounds of comparative examples (Ajoene and the compounds isosteric to Ajoene wherein R1 is allyl or benzyl) and the compounds of examples of the present invention (the compounds not isosteric to Ajoene wherein R^1 is phenyl) was investigated in human cancer cell lines (renal cancer cell line (ACHN), breast cancer cell line (MDA-MB-231), colorectal cancer cell line (HCT-15), prostate cancer cell line (PC-3), gastric cancer cell line (NUGC-3) and lung cancer cell line (NCl-H23)).
(§2) At this time, the cancer cell lines (renal cancer cell line (ACHN), breast cancer cell line (MDA-MB-231), colorectal cancer cell line (HCT-15), prostate cancer cell line (PC-3), gastric cancer cell line (NUGC-3) and lung cancer cell line (NCl-H23)) above were purchased from American Type Culture Collection (Manassas, Va., USA). Cells were cultured in RPMI 1640 supplemented with 10% fetal bovine serum, which were maintained 37° C. under 5% CO2 wet atmosphere. The cells were distributed in a 96-well plate, which was not treated (treated only with 0.1% DMSO) or treated with the compounds of examples of the present (0.1 μM to 10 μM). 48 hours later, the cells were fixed in 50% trichloroacetic acid, followed by staining with 1% acetic acid containing 0.4% sulphorodamine B dissolved therein. The non-conjugated dye was removed by washing with 1% acetic acid, and the protein conjugated dye was extracted with 10 mM Tris base (pH 10.5). Then, OD540 was measured with VersaMax microplate reader (Molecular devices, Sunnyvale, Calif., USA). GI50 was calculated by using GraphPad Prism software (GraphPad Software, Inc., San Diego, Calif., USA).
(§3) Based on the results obtained in experimental example 1-1 above, the derivatives wherein R^1 is phenyl were additionally synthesized. The cancer proliferation inhibitory activity of the derivatives was evaluated by the same manner as described in experimental example 1-1.

[2] = test system: lung cancer cell line (NCl-H23); assay: Cancer proliferation inhibitory activity (SRB, GI50), NCI-H23; assay type: cell-based; conditions: Homo sapiens, 48 hours
Excerpt: as §1, §2, §3

[3] = test system: gastric cancer cell line (NUGC-3); assay: Cancer proliferation inhibitory activity (SRB, GI50), NUGC-3; assay type: cell-based; conditions: Homo sapiens, 48 hours
Excerpt: as §1, §2, §3

HDAC 8 = target: T1, HDAC 8 (Homo sapiens, UniProt Q9BY41); assay: HDAC enzyme fluorescence assay, HDAC 8; assay type: biochemical; set-up: Inhibitory activity (%) HDAC 8: concentration or dose not given beside the values; conditions: (HDAC inhibitory activity of example compound/HDAC inhibitory activity of SAHA) × 100
T1 sequence (Q9BY41 1-377): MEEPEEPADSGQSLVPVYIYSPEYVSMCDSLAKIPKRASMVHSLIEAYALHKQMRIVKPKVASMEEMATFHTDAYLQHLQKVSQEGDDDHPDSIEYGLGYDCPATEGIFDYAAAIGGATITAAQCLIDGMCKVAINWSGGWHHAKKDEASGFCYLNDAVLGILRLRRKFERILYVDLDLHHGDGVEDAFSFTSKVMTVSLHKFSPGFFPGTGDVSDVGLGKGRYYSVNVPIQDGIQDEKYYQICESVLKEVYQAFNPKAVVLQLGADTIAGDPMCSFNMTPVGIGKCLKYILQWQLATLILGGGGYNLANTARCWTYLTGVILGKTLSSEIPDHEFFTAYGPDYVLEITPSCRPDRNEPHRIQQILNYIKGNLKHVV
Experimental: Particularly, HDAC enzyme analysis was performed based on a uniform fluorescence emission assay. First, the compounds of examples of the present invention or comparative example 1 were diluted at different concentrations, which were treated to the analysis buffer containing 25 mM HEPES (pH 8.0), 137 mM NaCl, 1 mM MgCl2 and 2.7 mM KCL, followed by culture of the recombinant HDAC enzyme. 10 minutes later, Boc-Lys(acetyl)-AMC, the fluorescence inducing substrate, was added thereto, followed by further culture at 37° C. At this time, the concentration of the fluorescence inducing substrate and the culture time were adjusted according to the isotypes of the HDAC enzyme. The reaction was terminated by treating trypsin at room temperature for 20 minutes. The fluorescence intensity was measured using a fluorescence analyzer at an excitation wavelength of 380 nm and an emission wavelength of 460 nm, respectively. The inhibition rate was calculated from the measured fluorescence intensity of each well with comparing to that of the control well. IC50 of the compound was calculated by analyzing the dose-reaction inhibition curve.
The HDAC 8 inhibitory activity was presented as percentage of relative activity by the inhibitory activity of SAHA (Vorinostat) used as a reference compound.

[4] = test system: renal cancer cell line (ACHN); assay: Cancer proliferation inhibitory activity (SRB, GI50), ACHN; assay type: cell-based; conditions: Homo sapiens, 48 hours
Excerpt: as §1, §2, §3

[5] = test system: colorectal cancer cell line (HCT-15); assay: Cancer proliferation inhibitory activity (SRB, GI50), HCT-15; assay type: cell-based; conditions: Homo sapiens, 48 hours
Excerpt: as §1, §2, §3

[6] = test system: prostate cancer cell line (PC-3); assay: Cancer proliferation inhibitory activity (SRB, GI50), PC-3; assay type: cell-based; conditions: Homo sapiens, 48 hours
Excerpt: as §1, §2, §3

Row | GI50 [1] | GI50 [2] | GI50 [3] | Inhibitory activity (%) HDAC 8 (HDAC 8) | GI50 [4] | GI50 [5] | GI50 [6] | Compound
1 | 1.77 µM | 2.12 µM | 2.34 µM | 88.1% | 2.5 µM | 2.08 µM | 1.44 µM | COc1cccc([S+]([O-])C/C=C/SSCc2ccccc2)c1 (centres unmarked) [Example 19, (E)-1-benzyl-2-(3-(3-methoxyphenylsulfinyl)prop-1-enyl)disulfane]
2 | – | – | – | 138.9% | – | – | – | COc1cccc([S+]([O-])C/C=C/SSCc2ccc(Cl)c(Cl)c2)c1 (centres unmarked) [Example 25, (E)-1-(3,4-dichlorobenzyl)-2-(3-(3-methoxyphenylsulfinyl)prop-1-enyl)disulfane]
3 | – | – | – | 105.3% | – | – | – | C=CCSS/C=C\C[S+]([O-])c1cccc(OC)c1 (centres unmarked) [Example 16, (Z)-1-allyl-2-(3-(3-methoxyphenylsulfinyl)prop-1-enyl)disulfane]
4 | – | – | – | 24.9% | – | – | – | [O-][S+](C/C=C\SSCc1ccc(F)cc1)c1ccccc1 (centres unmarked) [Example 8, (Z)-1-(4-fluorobenzyl)-2-(3-(phenylsulfinyl)prop-1-enyl)disulfane]
5 | – | – | – | 115.2% | – | – | – | CCCSS/C=C\C[S+]([O-])c1ccccc1 (centres unmarked) [Example 4, (Z)-1-(3-(phenylsulfinyl)prop-1-enyl)-2-propyldisulfane]
6 | – | – | – | 74.6% | – | – | – | COc1ccc([S+]([O-])C/C=C/SSCc2ccccc2)cc1 (centres unmarked) [Example 31, (E)-1-benzyl-2-(3-(4-methoxyphenylsulfinyl)prop-1-enyl)disulfane]

The remaining lines, values behind:

Row | Compound | GI50 [1] | GI50 [2] | GI50 [3] | Inhibitory activity (%) HDAC 8 (HDAC 8) | GI50 [4] | GI50 [5] | GI50 [6]
7 | C=CCSS/C=C\C[S+]([O-])Cc1ccccc1 (centres unmarked) [Comparative Example 4, (Z)-1-allyl-2-(3-(benzylsulfinyl)prop-1-enyl)disulfane, reference compound] | – | 5.98 µM | 8.07 µM | – | 5.32 µM | 5.93 µM | 3.28 µM
8 | [O-][S+](C/C=C/SSCc1ccc(F)cc1)Cc1ccccc1 (centres unmarked) [Comparative Example 8, (E)-1-(3-(benzylsulfinyl)prop-1-enyl)-2-(4-fluorobenzyl)disulfane, reference compound] | – | 2.83 µM | – | – | 4.1 µM | 2.27 µM | 2.04 µM
9 | C=CC[S+]([O-])C/C=C\SSCc1ccccc1 (centres unmarked) [Comparative Example 3, (Z)-1-(3-(allylsulfinyl)prop-1-enyl)-2-benzyldisulfane, reference compound] | 4.64 µM | 3.59 µM | 2.05 µM | – | 3.26 µM | 4.96 µM | 2.31 µM
10 | [O-][S+](C/C=C/SSCc1ccccc1)Cc1ccccc1 (centres unmarked) [Comparative Example 7, (E)-1-benzyl-2-(3-(benzylsulfinyl)prop-1-enyl)disulfane, reference compound] | – | 6.41 µM | – | – | 4.22 µM | – | 3.88 µM
11 | C=CCSS/C=C/C[S+]([O-])c1ccccc1 (centres unmarked) [Example 1, (E)-1-allyl-2-(3-(phenylsulfinyl)prop-1-enyl)disulfane] | – | – | – | 32.1% | – | – | –
12 | CCCSS/C=C/C[S+]([O-])Cc1ccccc1 (centres unmarked) [Comparative Example 6, (E)-1-(3-(benzylsulfinyl)prop-1-enyl)-2-propyldisulfane, reference compound] | 2.19 µM | 2.93 µM | 3.27 µM | – | – | 3.03 µM | –
13 | [O-][S+](C/C=C\SSCc1ccc(F)cc1)Cc1ccccc1 (centres unmarked) [Comparative Example 9, (Z)-1-(3-(benzylsulfinyl)prop-1-enyl)-2-(4-fluorobenzyl)disulfane, reference compound] | 3.24 µM | – | – | – | 2.32 µM | – | –
14 | C=CCSS/C=C/C[S+]([O-])Cc1ccccc1 (centres unmarked) [Comparative Example 5, (E)-1-allyl-2-(3-(benzylsulfinyl)prop-1-enyl)disulfane, reference compound] | 5.45 µM | 4.41 µM | 10.3 µM | – | 4.43 µM | 9.1 µM | 6.85 µM
15 | C=CCSS/C=C\C[S+]([O-])c1ccccc1 (centres unmarked) [Example 2, (Z)-1-allyl-2-(3-(phenylsulfinyl)prop-1-enyl)disulfane] | – | – | – | 37.5% | – | – | –
